Data published in patent publication US8252814B2, “Agents and crystals for improving excretory potency of urinary bladder” (priority 1998, dated 2012).

Molecular target: T1, human erythrocyte-derived acetylcholine esterase (Homo sapiens, UniProt P22303)
T1 construct: Acetylcholinesterase of human erythrocyte origin (Sigma Chemical Co.); purchased Sigma Chemical Co; host or cells: human erythrocytes (natural source)
Assay: Determination of the activity to inhibit the acetylcholine esterase of the crystals (Ellman method), Experimental Example 5
Assay type: biochemical
Settings: at least three experiments
Procedure: The activity to inhibit the acetylcholine esterase of the crystals obtained in Example 1 was determined according to the acetylthiocholine method (the Ellman method) by the use of a human erythrocyte-derived acetylcholine esterase.
A human erythrocyte-derived acetylcholine esterase (Sigma Chemical Company) was dissolved into distilled water to obtain a standard enzyme preparation with an enzyme concentration of 0.2 IU/mL. […]
The activity to inhibit the acetylcholine esterase of the crystals obtained in Example 1 was determined according to the acetylthiocholine method (the ElIman method) by the use of a human erythrocyte-derived acetylcholine esterase.
A human erythrocyte-derived acetylcholine esterase (Sigma Chemical Company) was dissolved into distilled water to obtain a standard enzyme preparation with an enzyme concentration of 0.2 IU/mL. […] As soon as 50 μl of a 4-mM solution of acetylthiocholine iodide (Sigma Chemical Company) was added and shaking was started again, every increment in absorbance at the wavelength of 414 nm at an interval of 30 seconds was determined for 10 minutes. R=5.74×10^−7×ΔA (wherein R indicates an enzyme activity (mol) and ΔA indicates an increment in absorbance at the wavelength of 414 nm). […] Furthermore, the activity to inhibit the acetylcholine esterase of distigmine was determined in a manner similar to that described in the above method.

T1 sequence (P22303 32-617 isoform P22303-2 limits assumed): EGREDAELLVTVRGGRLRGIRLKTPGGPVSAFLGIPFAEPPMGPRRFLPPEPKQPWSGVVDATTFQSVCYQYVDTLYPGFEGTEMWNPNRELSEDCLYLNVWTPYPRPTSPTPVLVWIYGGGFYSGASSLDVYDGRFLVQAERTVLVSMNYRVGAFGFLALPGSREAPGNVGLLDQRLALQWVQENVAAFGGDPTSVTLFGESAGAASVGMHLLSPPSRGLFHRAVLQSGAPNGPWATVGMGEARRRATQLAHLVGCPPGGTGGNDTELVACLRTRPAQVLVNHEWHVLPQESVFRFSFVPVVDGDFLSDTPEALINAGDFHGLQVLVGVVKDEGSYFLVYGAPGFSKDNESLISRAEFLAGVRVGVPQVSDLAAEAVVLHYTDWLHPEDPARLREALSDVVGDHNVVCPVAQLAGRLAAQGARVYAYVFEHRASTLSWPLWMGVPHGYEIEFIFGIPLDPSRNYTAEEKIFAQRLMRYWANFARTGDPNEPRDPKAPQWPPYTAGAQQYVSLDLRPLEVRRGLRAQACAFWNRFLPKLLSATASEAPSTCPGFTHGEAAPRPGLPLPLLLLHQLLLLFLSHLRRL

Compound: CN(CCCCCCN(C)C(=O)Oc1ccc[n+](C)c1)C(=O)Oc1ccc[n+](C)c1 [Distigmine, reference compound]
- IC50: 652 nM
